Results: patent US9695155B2, “Herbicidal substituted pyrimidinyloxy benzene compounds” (E. I. DU PONT DE NEMOURS AND COMPANY, priority 2013, dated 2017)

Columns and labels:
[1] = test system: pigweed; test: Test C postemergence; type: in vivo, Amaranthus retroflexus
How it was run: (§1)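 Rated visually on 0–100 (100 = complete control) after 13–15 days under glass. Treatments went onto freshly seeded loam/sand soil or onto emerged plants at the 1- to 4-leaf stage, using a surfactant-containing solvent formulation.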

[2] = test system: johnsongrass; test: Test C preemergence; type: in vivo, Sorghum halepense
How it was run: as §1

[3] = test system: corn; test: Test A postemergence; type: in vivo, Zea mays; conditions: 0 to 100 scale where 0 is no effect and 100 is complete control
How it was run: (§2)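 Pre- and postemergence greenhouse screen. Soil: loam + sand. Spray carrier: solvent mixture, non-phytotoxic, with surfactant. Post timing at 1–2 leaves, height 2–10 cm. Readout: visual injury on a 0–100 scale roughly 10 days after application, untreated plants as reference.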

[4] = test system: wheat; test: Test A postemergence; type: in vivo, Triticum aestivum; conditions: 0 to 100 scale where 0 is no effect and 100 is complete control
How it was run: as §2

[5] = test system: ragweed; test: Test C postemergence; type: in vivo, Ambrosia elatior
How it was run: as §1

[6] = test system: soybean; test: Test C preemergence; type: in vivo, Glycine max
How it was run: as §1

[7] = test system: giant foxtail; test: Test C preemergence; type: in vivo, Setaria faberii
How it was run: as §1

[8] = test system: pigweed; test: Test A preemergence; type: in vivo, Amaranthus retroflexus; conditions: 0 to 100 scale where 0 is no effect and 100 is complete control
How it was run: as §2

[9] = test system: oilseed rape; test: Test C postemergence; type: in vivo, Brassica napus
How it was run: as §1

[10] = test system: waterhemp; test: Test C preemergence; type: in vivo, Amaranthus rudis
How it was run: as §1

[11] = test system: galium; test: Test C postemergence; type: in vivo, Galium aparine
How it was run: as §1

[12] = test system: ragweed; test: Test C preemergence; type: in vivo, Ambrosia elatior
How it was run: as §1

[13] = test system: velvetleaf; test: Test C postemergence; type: in vivo, Abutilon theophrasti
How it was run: as §1

[14] = 16 g ai/ha, postemergence, 0 is no effect, 100 is complete control
[15] = 31 g ai/ha, postemergence, visual rating, scale 0 to 100 (0 no effect, 100 complete control), 13 to 15 days
[16] = 125 g ai/ha, postemergence, visual rating, scale 0 to 100 (0 no effect, 100 complete control)
[17] = Postemergence, 62 g ai/ha, scale 0 to 100 (0 no effect, 100 complete control)
[18] = 16 g ai/ha, preemergence, scale 0 to 100 (0 no effect, 100 complete control)
[19] = 62 g ai/ha, preemergence, scale 0 (no effect) to 100 (complete control)
[20] = 125 g ai/ha, preemergence, scale 0 (no effect) to 100 (complete control)

CCCOc1cnn(-c2c(C#N)cccc2Oc2ncc(Cl)cn2)c1 [Compound 150]
Plant response rating (0 to 100), Pigweed [1, 14]: 40 | Pigweed plant response rating [1, 15]: 55 | Plant response rating, Pigweed [1, 16]: 65 | Plant response rating, Pigweed [1, 17]: 55 | Johnsongrass plant response rating [2, 18]: 0 | Johnsongrass plant response rating [2, 19]: 70 | Johnsongrass plant response rating [2, 20]: 80 | Corn plant response rating ([3]; 125 g ai/ha): 50 | Plant response rating, Corn ([3]; 500 g ai/ha): 90 | Wheat plant response rating ([4]; 125 g ai/ha): 30 | Plant response rating, Wheat ([4]; 500 g ai/ha): 90 | Plant response rating (0 to 100), Ragweed [5, 14]: 30 | Ragweed plant response rating [5, 15]: 30 | Plant response rating, Ragweed [5, 16]: 65 | Plant response rating, Ragweed [5, 17]: 35 | Soybean plant response rating [6, 18]: 0 | Soybean plant response rating [6, 19]: 45 | Soybean plant response rating [6, 20]: 90 | Foxtail, Giant plant response rating [7, 18]: 5 | Foxtail, Giant plant response rating [7, 19]: 100 | Foxtail, Giant plant response rating [7, 20]: 100 | Plant response rating, Foxtail, Giant ([7]; Preemergence, 31 g ai/ha, scale 0 to 100, 0 no effect, 100 complete control): 75 | Plant response rating, Pigweed ([8]; 125 g ai/ha): 100 | Pigweed plant response rating ([8]; 500 g ai/ha): 100 | Plant response rating (0 to 100), Oilseed Rape [9, 14]: 5 | Oilseed Rape plant response rating [9, 15]: 40 | Plant response rating, Oilseed Rape [9, 16]: 50 | Plant response rating, Oilseed Rape [9, 17]: 45 | Waterhemp plant response rating [10, 18]: 20 | Waterhemp plant response rating [10, 19]: 98 | Waterhemp plant response rating [10, 20]: 98 | Plant response rating (0 to 100), Galium [11, 14]: 60 | Galium plant response rating [11, 15]: 65 | Plant response rating, Galium [11, 16]: 80 | Plant response rating, Galium [11, 17]: 75 | Ragweed plant response rating [12, 18]: 0 | Ragweed plant response rating [12, 19]: 25 | Ragweed plant response rating [12, 20]: 55 | Plant response rating (0 to 100), Velvetleaf [13, 14]: 20 | Velvetleaf plant response rating [13, 15]: 25 | Plant response rating, Velvetleaf [13, 16]: 30 | Plant response rating, Velvetleaf [13, 17]: 30

FC(F)(F)Sc1cnn(-c2ccccc2Oc2ncc(Cl)cn2)c1 [Compound 132, 5-chloro-2-[2-[4-(trifluoromethylthio)-1H-pyrazol-1-yl]phenoxy]pyrimidine]
pest or weed control at 16 g/ha ([1]; Amaranthus retroflexus, post-emergence, 16 g ai/ha, postemergence, 0 is no effect, 100 is complete control, read-out: Plant response rating (0 to 100), Pigweed): 25% | pest or weed control at 125 g/ha ([1]; Amaranthus retroflexus, post-emergence, 125 g ai/ha, postemergence, visual rating, scale 0 to 100 (0 no effect, 100 complete control), read-out: Plant response rating, Pigweed): 80% | pest or weed control at 62 g/ha ([1]; Amaranthus retroflexus, post-emergence, Postemergence, 62 g ai/ha, scale 0 to 100 (0 no effect, 100 complete control), read-out: Plant response rating, Pigweed): 75% | pest or weed control at 16 g/ha ([2]; Sorghum halepense, pre-emergence, 16 g ai/ha, preemergence, scale 0 to 100 (0 no effect, 100 complete control), read-out: Johnsongrass plant response rating): 0% | pest or weed control at 62 g/ha ([2]; Sorghum halepense, pre-emergence, 62 g ai/ha, preemergence, scale 0 (no effect) to 100 (complete control), read-out: Johnsongrass plant response rating): 0% | pest or weed control at 125 g/ha ([2]; Sorghum halepense, pre-emergence, 125 g ai/ha, preemergence, scale 0 (no effect) to 100 (complete control), read-out: Johnsongrass plant response rating): 35% | pest or weed control at 31 g/ha ([2]; Sorghum halepense, pre-emergence, Preemergence, 31 g ai/ha, scale 0 to 100, 0 no effect, 100 complete control, read-out: Plant response rating, Johnsongrass): 0% | plant injury at 125 g/ha ([3]; Zea mays, post-emergence, 240 h, 125 g ai/ha, read-out: Corn plant response rating): 20% | Corn plant response rating (crop injury, 0 = no effect, 100 = complete kill) at 500 g/ha ([3]; Zea mays, post-emergence, 240 h, 500 g ai/ha): 50% | plant injury at 125 g/ha ([4]; Triticum aestivum, post-emergence, 240 h, 125 g ai/ha, read-out: Wheat plant response rating): 0% | plant injury at 500 g/ha ([4]; Triticum aestivum, post-emergence, 240 h, 500 g ai/ha, read-out: Plant response rating, Wheat): 60% | pest or weed control at 16 g/ha ([5]; Ambrosia artemisiifolia, post-emergence, 16 g ai/ha, postemergence, 0 is no effect, 100 is complete control, read-out: Plant response rating (0 to 100), Ragweed): 0% | pest or weed control at 125 g/ha ([5]; Ambrosia artemisiifolia, post-emergence, 125 g ai/ha, postemergence, visual rating, scale 0 to 100 (0 no effect, 100 complete control), read-out: Plant response rating, Ragweed): 35% | pest or weed control at 62 g/ha ([5]; Ambrosia artemisiifolia, post-emergence, Postemergence, 62 g ai/ha, scale 0 to 100 (0 no effect, 100 complete control), read-out: Plant response rating, Ragweed): 10% | plant injury at 16 g/ha ([6]; Glycine max, pre-emergence, 16 g ai/ha, preemergence, scale 0 to 100 (0 no effect, 100 complete control), read-out: Soybean plant response rating): 0% | plant injury at 62 g/ha ([6]; Glycine max, pre-emergence, 62 g ai/ha, preemergence, scale 0 (no effect) to 100 (complete control), read-out: Soybean plant response rating): 5% | plant injury at 125 g/ha ([6]; Glycine max, pre-emergence, 125 g ai/ha, preemergence, scale 0 (no effect) to 100 (complete control), read-out: Soybean plant response rating): 55% | plant injury at 31 g/ha ([6]; Glycine max, pre-emergence, Preemergence, 31 g ai/ha, scale 0 to 100, 0 no effect, 100 complete control, read-out: Plant response rating, Soybean): 0% | pest or weed control at 16 g/ha ([7]; Setaria faberi, pre-emergence, 16 g ai/ha, preemergence, scale 0 to 100 (0 no effect, 100 complete control), read-out: Foxtail, Giant plant response rating): 5% | pest or weed control at 62 g/ha ([7]; Setaria faberi, pre-emergence, 62 g ai/ha, preemergence, scale 0 (no effect) to 100 (complete control), read-out: Foxtail, Giant plant response rating): 70% | pest or weed control at 125 g/ha ([7]; Setaria faberi, pre-emergence, 125 g ai/ha, preemergence, scale 0 (no effect) to 100 (complete control), read-out: Foxtail, Giant plant response rating): 98% | pest or weed control at 31 g/ha ([7]; Setaria faberi, pre-emergence, Preemergence, 31 g ai/ha, scale 0 to 100, 0 no effect, 100 complete control, read-out: Plant response rating, Foxtail, Giant): 55% | pest or weed control at 125 g/ha ([8]; Amaranthus retroflexus, pre-emergence, 125 g ai/ha, read-out: Plant response rating, Pigweed): 100% | pest or weed control at 500 g/ha ([8]; Amaranthus retroflexus, pre-emergence, 240 h, 500 g ai/ha, read-out: Pigweed plant response rating): 100% | plant injury at 16 g/ha ([9]; Brassica napus, post-emergence, 16 g ai/ha, postemergence, 0 is no effect, 100 is complete control, read-out: Plant response rating (0 to 100), Oilseed Rape): 40% | plant injury at 125 g/ha ([9]; Brassica napus, post-emergence, 125 g ai/ha, postemergence, visual rating, scale 0 to 100 (0 no effect, 100 complete control), read-out: Plant response rating, Oilseed Rape): 95% | plant injury at 62 g/ha ([9]; Brassica napus, post-emergence, Postemergence, 62 g ai/ha, scale 0 to 100 (0 no effect, 100 complete control), read-out: Plant response rating, Oilseed Rape): 70% | pest or weed control at 16 g/ha ([10]; Amaranthus tuberculatus, pre-emergence, 16 g ai/ha, preemergence, scale 0 to 100 (0 no effect, 100 complete control), read-out: Waterhemp plant response rating): 85% | pest or weed control at 62 g/ha ([10]; Amaranthus tuberculatus, pre-emergence, 62 g ai/ha, preemergence, scale 0 (no effect) to 100 (complete control), read-out: Waterhemp plant response rating): 100% | pest or weed control at 125 g/ha ([10]; Amaranthus tuberculatus, pre-emergence, 125 g ai/ha, preemergence, scale 0 (no effect) to 100 (complete control), read-out: Waterhemp plant response rating): 100% | pest or weed control at 31 g/ha ([10]; Amaranthus tuberculatus, pre-emergence, Preemergence, 31 g ai/ha, scale 0 to 100, 0 no effect, 100 complete control, read-out: Plant response rating, Waterhemp): 98% | pest or weed control at 16 g/ha ([11]; Galium, post-emergence, 16 g ai/ha, postemergence, 0 is no effect, 100 is complete control, read-out: Plant response rating (0 to 100), Galium): 50% | pest or weed control at 125 g/ha ([11]; Galium, post-emergence, 125 g ai/ha, postemergence, visual rating, scale 0 to 100 (0 no effect, 100 complete control), read-out: Plant response rating, Galium): 70% | pest or weed control at 62 g/ha ([11]; Galium, post-emergence, Postemergence, 62 g ai/ha, scale 0 to 100 (0 no effect, 100 complete control), read-out: Plant response rating, Galium): 65% | pest or weed control at 16 g/ha ([12]; Ambrosia artemisiifolia, pre-emergence, 16 g ai/ha, preemergence, scale 0 to 100 (0 no effect, 100 complete control), read-out: Ragweed plant response rating): 10% | pest or weed control at 62 g/ha ([12]; Ambrosia artemisiifolia, pre-emergence, 62 g ai/ha, preemergence, scale 0 (no effect) to 100 (complete control), read-out: Ragweed plant response rating): 40% | pest or weed control at 125 g/ha ([12]; Ambrosia artemisiifolia, pre-emergence, 125 g ai/ha, preemergence, scale 0 (no effect) to 100 (complete control), read-out: Ragweed plant response rating): 30% | pest or weed control at 31 g/ha ([12]; Ambrosia artemisiifolia, pre-emergence, Preemergence, 31 g ai/ha, scale 0 to 100, 0 no effect, 100 complete control, read-out: Plant response rating, Ragweed): 10% | pest or weed control at 16 g/ha ([13]; Abutilon theophrasti, post-emergence, 16 g ai/ha, postemergence, 0 is no effect, 100 is complete control, read-out: Plant response rating (0 to 100), Velvetleaf): 5% | pest or weed control at 125 g/ha ([13]; Abutilon theophrasti, post-emergence, 125 g ai/ha, postemergence, visual rating, scale 0 to 100 (0 no effect, 100 complete control), read-out: Plant response rating, Velvetleaf): 45% | pest or weed control at 62 g/ha ([13]; Abutilon theophrasti, post-emergence, Postemergence, 62 g ai/ha, scale 0 to 100 (0 no effect, 100 complete control), read-out: Plant response rating, Velvetleaf): 40%
